Data set [1] can be described thus: In vitro intrinsic clearance in microsomes, rat. It counts as in vitro ADME. The settings on record: Assay 3, rat female microsomes, 0.5 uM compound, 0.5 mg/mL protein, 37° C.; for microsomal CLint at 0.5 uM: pH 7.4. Here is the method: (§1) Determination of In vitro Intrinsic Clearance in Microsomes
(§2) NADP regeneration buffer for use in incubations was prepared fresh on the assay day. It contained 7.8 mg glucose-6-phosphate (mono-sodium salt), 1.7 mg NADP and 6 Units glucose-6-phosphate dehydrogenase per 1 mL of 2% sodium bicarbonate. Microsomes (human, female; cynomolgus monkey, female; dog, female; rat, female) were prepared in pH7.4 phosphate buffer and contained 0.625 mg protein/mL. Unless stated, all subsequent steps were performed by a Tecan Genesis 150/8 RSP. A 1.25 mM stock solution of the compounds was prepared in Acetonitrile/water (1:1). 25 ul of the 1.25 mM stock solution was added to 600 ul of Acetonitrile/water (1:1) to give a 50 uM solution. For each species, the 50 uM solutions (10 uL) were added to microsomes (790 uL) in a microplate (Porvair, 96 deepwell, square). 400 uL of the microsomal solution containing the compound was transferred to a microplate (Porvair, 96 deepwell, round) and was pre-warmed at 37° C. for five minutes prior to initiation of incubations. All incubations were initiated by addition of 100 uL of
(§3) NADP regeneration system to the pre-warmed microsomes. The mixtures were incubated at 37° C. in a Techne heating block. Following 0, 3, 6, 12 and 30 minutes incubation, 20 uL aliquots were taken and added to 100 uL of acetonitrile containing internal standard.
(§4) For determination of the rate of metabolism, incubations were performed at a compound concentration of 0.5 uM and a protein concentration of 0.5 mg/mL. The concentration of solvent in the incubation was 0.5%.
(§5) Test compound concentrations were determined by LC/MS/MS; results were reported as analyte:internal standard peak area ratios.
(§6) The rate of disappearance was calculated by fitting a single exponential decay to the concentration-time curve using Excel and intrinsic clearance was calculated using the following formula: […]

A short description of data set [2]: In vitro intrinsic clearance in microsomes, cynomolgus monkey. It counts as in vitro ADME. The settings on record: Assay 3, cynomolgus monkey female microsomes, 0.5 uM compound, 0.5 mg/mL protein, 37° C.; for microsomal CLint at 0.5 uM: pH 7.4. Here is the method: as §1, §2, §3, §4, §5, §6
Data set [3] can be described thus: In vitro intrinsic clearance in microsomes, dog. It counts as in vitro ADME. Conditions: Assay 3, dog female microsomes, 0.5 uM compound, 0.5 mg/mL protein, 37° C.; for microsomal CLint at 0.5 uM: pH 7.4. The protocol: as §1, §2, §3, §4, §5, §6
A short description of data set [4]: In vitro intrinsic clearance in microsomes, human. It counts as in vitro ADME. The settings on record: Assay 3, human female microsomes, 0.5 uM compound, 0.5 mg/mL protein, 37° C.; for microsomal CLint at 0.5 uM: pH 7.4. The protocol:
as §1, §2, §3, §4, §5, §6

Data set [5] deals with T1, recombinant human Oxytocin-1 (hOT) receptor (Homo sapiens, UniProt P30559).
T1 construct: expressed in transfected cells
T1 sequence (P30559 1-389): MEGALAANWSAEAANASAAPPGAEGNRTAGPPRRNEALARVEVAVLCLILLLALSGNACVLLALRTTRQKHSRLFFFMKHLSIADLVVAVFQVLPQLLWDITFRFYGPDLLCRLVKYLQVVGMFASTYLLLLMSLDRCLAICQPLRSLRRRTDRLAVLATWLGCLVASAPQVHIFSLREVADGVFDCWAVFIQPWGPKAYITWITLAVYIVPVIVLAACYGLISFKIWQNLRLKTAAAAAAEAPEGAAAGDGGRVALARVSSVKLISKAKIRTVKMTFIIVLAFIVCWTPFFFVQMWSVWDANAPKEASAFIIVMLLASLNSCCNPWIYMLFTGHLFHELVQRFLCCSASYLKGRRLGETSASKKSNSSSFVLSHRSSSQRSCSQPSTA
Nature of the data set: Antagonist affinity at human Oxytocin-1 receptors using FLIPR ([Ca2+]i). Type of data set: cell-based. Conditions: Assay 1, CHO-hOT cells, oxytocin at EC80, read-out: fpKi. The protocol: Determination of Antagonist Affinity at Human Oxytocin-1 Receptors using FLIPR
Adherent Chinese Hamster Ovary (CHO) cells, stably expressing the recombinant human Oxytocin-1 (hOT) receptor, were maintained in culture in DMEM:F12 medium (Sigma, cat no D6421), supplemented with 10% heat inactivated foetal calf serum
(Gibco/Invitrogen, cat. no. 01000-147), 2 mM L-glutamine (Gibco/Invitrogen, cat. no. 25030-024) and 0.2 mg/ml G418 (Gibco/Invitrogen, cat no. 10131-027). Cells were grown as monolayers under 95%:5% air:CO2 at 37° C. and passaged every 3-4 days using TrypLE™ Express (Gibco/Invitrogen, cat no. 12604-013).
Measurement of [Ca^2+]i using the FLIPR™
CHO-hOT cells were seeded into black walled clear-base 384-well plates (Nunc) at a density of 10,000 cells per well in culture medium as described above and maintained overnight (95%:5% air:CO2 at 37° C.). […] Cells were then incubated for an additional 30 min at 37° C. with either buffer alone or buffer containing OT antagonist, before being placed into a FLIPR™ (Molecular Devices, UK) to monitor cell fluorescence (λex=488 nm, λEM=540 nm) before and after the addition of a submaximal concentration of oxytocin (EC80).
Functional responses using FLIPR were analysed using Activity Base Version 5.0.10.

The target in data set [6] is T2, human recombinant oxytocin receptors (Homo sapiens, UniProt P30559).
T2 construct: expressed in transfected cells; host or cells: membranes of CHO cells
T2 sequence (P30559 1-389): T1 sequence (P30559 1-389)
Put plainly: Oxytocin binding assay ([3H]-oxytocin, CHO cell membranes). The settings on record: Assay 2, Ki from IC50 by Cheng and Prusoff. Here is the method: Membranes were prepared from CHO cells expressing human recombinant oxytocin receptors. The membrane preparation was frozen in aliquots at −70° C. until used.
Membranes (˜50 ug) were incubated in 200 ul of assay buffer (50 mM Tris, 10 mM MgCl2, and 0.1% bovine serum albumin, pH 7.5) containing ˜2.4 nM of [3H]-oxytocin in the absence (total binding) or presence (non-specific binding) of 1 uM unlabeled oxytocin and increasing concentrations of the compounds in Examples 1 to 6 or comparator compounds. Incubations were performed at room temperature for 60 minutes. The reactions were stopped with 3 ml of ice cold buffer and filtered through Whatman GF/C filter paper presoaked in 0.3% polyethylenimine. The filters were washed 4 times with 3 ml buffer using a Brandel cell harvester. The filters were counted in 3 ml Ready Safe scintillation fluid (Beckman).
Specific binding represented approximately 90% of total binding.
IC50 values were determined from competition binding experiments using non-linear regression analysis (GraphPad) and converted to Ki using the method of Cheng and Prusoff, 1974. Data are reported as mean values.

For the compound `CC[C@H](C)[C@@H]1C(=O)N[C@H](C2Cc3ccccc3C2)C(=O)N1[C@@H](C(=O)N(C)C)c1cnc(C)cc1C` [Example 4, (2R)-2-{(3R,6R)-3-(2,3-Dihydro-1H-inden-2-yl)-6-[(1S)-1-methylpropyl]-2,5-dioxo-1-piperazinyl}-2-(4,6-dimethyl-3-pyridinyl)-N,N-dimethylethanamide], the “Microsomal Cl, Rat” value in data set [1] was “+, +”. Besides, in data set [2], the “Microsomal Cl, Cynomolgus monkey” value is reported as “+++++, +++++”. The “Microsomal Cl, Dog” value in data set [3] is given as “+, +”. Also, the “Microsomal Cl, Human” value in data set [4] was “++, +”.

A word on the microsomal CLint: it is the rate of metabolic loss divided by the concentration. As for `CC[C@H](C)[C@@H]1C(=O)N[C@H](C2Cc3ccccc3C2)C(=O)N1[C@@H](C(=O)NC)c1ccc(C)nc1C` [Example 1, (2R)-2-{(3R,6R)-3-(2,3-Dihydro-1H-inden-2-yl)-6-[(1S)-1-methylpropyl]-2,5-dioxo-1-piperazinyl}-2-(2,6-dimethyl-3-pyridinyl)-N-methylethanamide], the microsomal CLint at 0.5 uM in data set [1], in data set [2], in data set [3] and in data set [4] was 1 to 8 mL/min/g in each case.

Turning to `Cc1ccc([C@H](C(=O)N(C)C)N2C(=O)[C@@H](C3Cc4ccccc4C3)NC(=O)[C@H]2CC(C)C)cn1` [Comparator X, (2R)-2-[(3R,6R)-3-(2,3-dihydro-1H-inden-2-yl)-6-isobutyl-2,5-dioxopiperazin-1-yl]-N,N-dimethyl-2-(6-methylpyridin-3-yl)ethanamide, reference compound], the microsomal CLint at 0.5 uM in data set [1] lay within 1 to 8 mL/min/g; in data set [3] it was 1 to 8 mL/min/g; in data set [4], 9 to 15 mL/min/g. Moreover, the figures for the Ki in data set [5] and in data set [6] were 0.631 to 7.94 nM and 0.0316 to 1.58 nM, respectively.

With `CC[C@H](C)[C@@H]1C(=O)N[C@H](C2Cc3ccccc3C2)C(=O)N1[C@@H](C(=O)N(C)C)c1ccc(C)nc1C` [Example 2, (2R)-2-{(3R,6R)-3-(2,3-Dihydro-1H-inden-2-yl)-6-[(1S)-1-methylpropyl]-2,5-dioxo-1-piperazinyl}-2-(2,6-dimethyl-3-pyridinyl)-N,N-dimethylethanamide], the microsomal CLint at 0.5 uM in data set [1] and in data set [3] was 1 to 8 mL/min/g each time. Besides, the “Microsomal Cl, Cynomolgus monkey” value in data set [2] is listed as “++, +++”. Further, in data set [4], the “Microsomal Cl, Human” value is on record as “+, +”.

`CC[C@H](C)[C@@H]1C(=O)N[C@H](C2Cc3ccccc3C2)C(=O)N1[C@@H](C(=O)N1CCOCC1)c1cnc(C)cc1C` [Example 6, (3R,6R)-3-(2,3-dihydro-1H-inden-2-yl)-1-[(1R)-1-(4,6-dimethyl-3-pyridinyl)-2-(4-morpholinyl)-2-oxoethyl]-6-[(1S)-1-methylpropyl]-2,5-piperazinedione]: the microsomal CLint at 0.5 uM in data set [1] fell in the range of 1 to 8 mL/min/g; in data set [2], 16 to 20 mL/min/g; in data set [3], 1 to 8 mL/min/g; in data set [4], 1 to 8 mL/min/g.

With `CC[C@H](C)[C@@H]1C(=O)N[C@H](C2Cc3ccccc3C2)C(=O)N1[C@@H](C(=O)NC)c1cnc(C)cc1C` [Example 5, (2R)-2-{(3R,6R)-3-(2,3-Dihydro-1H-inden-2-yl)-6-[(1S)-1-methylpropyl]-2,5-dioxo-1-piperazinyl}-2-(4,6-dimethyl-3-pyridinyl)-N-methylethanamide], the microsomal CLint at 0.5 uM in data set [1] fell in the range of 1 to 8 mL/min/g; in data set [2] it was 16 to 20 mL/min/g; in data set [3] it was 1 to 8 mL/min/g; in data set [4], 1 to 8 mL/min/g.

For `CC[C@H](C)[C@@H]1C(=O)N[C@H](C2Cc3ccccc3C2)C(=O)N1[C@@H](C(=O)N1CCOCC1)c1ccc(C)nc1C` [Example 3, (3R,6R)-3-(2,3-dihydro-1H-inden-2-yl)-1-[(1R)-1-(2,6-dimethyl-3-pyridinyl)-2-(4-morpholinyl)-2-oxoethyl]-6-[(1S)-1-methylpropyl]-2,5-piperazinedione], the microsomal CLint at 0.5 uM in data set [1], in data set [2], in data set [3] and in data set [4] was 1 to 8 mL/min/g in each case.

Source of the values: US9408851B2, “Compounds” (Glaxo Group Limited, priority 2004, dated 2016).
